According to PubChem BioAssay (NCI):
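48-hour exposure; five concentrations; linearly interpolated endpoints. At the GI50, growth is halved. TGI denotes the concentration required for complete inhibition of growth.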

Key:
Assay in all cases: DTP human tumour cell line panel, 48 h
[1] = system: OVCAR-5 ovarian
[2] = system: UO-31 renal
[3] = system: SK-MEL-5 melanoma
[4] = system: HT29 colon
[5] = system: SF-539 CNS
[6] = system: T-47D breast
[7] = system: MDA-MB-435
[8] = system: MDA-MB-231 breast
[9] = system: HCT-116 colon
[10] = system: HL-60(TB) leukemia
[11] = system: RPMI-8226 leukemia
[12] = system: CCRF-CEM leukemia
[13] = system: HOP-62 NSCLC
[14] = system: M14 melanoma
[15] = system: SK-OV-3 ovarian
[16] = system: HCT-15 colon
[17] = system: ACHN renal
[18] = system: MALME-3M melanoma
[19] = system: UACC-257 melanoma
[20] = system: 786-0 renal
[21] = system: SF-268 CNS
[22] = system: BT-549 breast
[23] = system: U251 CNS
[24] = system: NCI-H226 lung
[25] = system: A549 NSCLC
[26] = system: TK-10 renal
[27] = system: SR leukemia
[28] = system: SK-MEL-2 melanoma
[29] = system: SF-295 CNS
[30] = system: SN12C renal
[31] = system: EKVX NSCLC
[32] = system: OVCAR-4 ovarian
[33] = system: HS 578T breast
[34] = system: NCI/ADR-RES ovarian
[35] = system: HOP-92 NSCLC
[36] = system: NCI-H23 lung
[37] = system: PC-3 prostate
[38] = system: KM12 colon
[39] = system: MOLT-4 leukemia
[40] = system: HCC-2998 colon
[41] = system: CAKI-1 renal
[42] = system: LOX IMVI melanoma
[43] = system: RXF 393 renal
[44] = system: SW-620 colon
[45] = system: UACC-62 melanoma
[46] = system: MCF7 breast
[47] = system: IGROV1 ovarian
[48] = system: NCI-H460 lung
[49] = system: SNB-75 CNS
[50] = system: OVCAR-3 ovarian
[51] = system: DU-145 prostate
[52] = system: COLO 205 colon
[53] = system: NCI-H522 lung
[54] = system: SK-MEL-28 melanoma
[55] = system: K-562 leukemia
[56] = system: OVCAR-8 ovarian
[57] = system: SNB-19 CNS
[58] = system: A498 renal

C/C=C/[C@@H]1OC(=O)C2=C[C@@H](O)[C@@H](/C=C/C)O[C@H]21 gave a GI50 [1] of 13.6 µM, a TGI [1] of 35 µM and a GI50 [2] of 3.05 µM. The TGI [2] was greater than 35.7 µM, the GI50 [3] was 9.03 µM and the TGI [3] was 23.8 µM. It also gave a GI50 [4] of 2.09 µM, a TGI [4] of 5.89 µM and a GI50 [5] of 1.1 µM. The TGI [5] was 3.49 µM, the GI50 [6] was 3.3 µM and the TGI [6] was 13 µM. For the same compound, the GI50 [7] was 10.4 µM, the TGI [7] was 25.5 µM and the GI50 [8] was 12.9 µM. It also gave a TGI [8] of 29.3 µM, a GI50 [9] of 1.3 µM and a TGI [9] of 3.94 µM. For the same compound, the GI50 [10] was 7.47 µM, the TGI [10] was greater than 100 µM and the GI50 [11] was 1.14 µM. For the same compound, the TGI [11] was 3.76 µM, the GI50 [12] was 0.271 µM and the TGI [12] was 5.77 µM. The GI50 [13] was 20 µM, the TGI [13] was 36.2 µM and the GI50 [14] was 3.23 µM. For the same compound, the TGI [14] was 8.12 µM, the GI50 [15] was 20.5 µM and the TGI [15] was 36.6 µM. For the same compound, the GI50 [16] was 2.82 µM, the TGI [16] was 17.2 µM and the GI50 [17] was 2.34 µM. It also gave a TGI [17] of 8.01 µM, a GI50 [18] of 1.73 µM and a TGI [18] of 5.56 µM. The GI50 [19] was 17.7 µM, the TGI [19] was 33 µM and the GI50 [20] was 2.53 µM. For the same compound, the TGI [20] was 8.36 µM, the GI50 [21] was 24.1 µM and the TGI [21] was greater than 82.5 µM. The GI50 [22] was 2.31 µM, the TGI [22] was 8.67 µM and the GI50 [23] was 14.6 µM. For the same compound, the TGI [23] was 35.6 µM, the GI50 [24] was 6.17 µM and the TGI [24] was 13.9 µM. For the same compound, the GI50 [25] was 15.8 µM, the TGI [25] was 34 µM and the GI50 [26] was 1.96 µM. For the same compound, the TGI [26] was 7.04 µM, the GI50 [27] was 16.8 µM and the TGI [27] was greater than 100 µM. It also gave a GI50 [28] of 23.5 µM, a TGI [28] greater than 58.6 µM and a GI50 [29] of 18 µM. The TGI [29] was 44.8 µM, the GI50 [30] was 3.76 µM and the TGI [30] was 12.6 µM. It also gave a GI50 [31] of 7.26 µM, a TGI [31] of 21.2 µM and a GI50 [32] of 6.96 µM. For the same compound, the TGI [32] was 27.8 µM, the GI50 [33] was 17.1 µM and the TGI [33] was 41.2 µM. It also gave a GI50 [34] of 19.2 µM, a TGI [34] greater than 56.2 µM and a GI50 [35] of 2.4 µM. For the same compound, the TGI [35] was 9.12 µM, the GI50 [36] was 3.08 µM and the TGI [36] was 23.3 µM. For the same compound, the GI50 [37] was 13.9 µM, the TGI [37] was 28.2 µM and the GI50 [38] was 16.9 µM. For the same compound, the TGI [38] was 38.9 µM, the GI50 [39] was 1.73 µM and the TGI [39] was greater than 19.7 µM. For the same compound, the GI50 [40] was 28.3 µM, the TGI [40] was 55 µM and the GI50 [41] was 1.71 µM. It also gave a TGI [41] of 3.81 µM, a GI50 [42] of 6.44 µM and a TGI [42] of 18.5 µM. It also gave a GI50 [43] of 6.27 µM, a TGI [43] of 28.8 µM and a GI50 [44] of 0.989 µM. It also gave a TGI [44] of 3.13 µM, a GI50 [45] of 13.9 µM and a TGI [45] of 28.9 µM. It also gave a GI50 [46] of 14.4 µM, a TGI [46] greater than 100 µM and a GI50 [47] of 7.62 µM. For the same compound, the TGI [47] was greater than 56 µM, the GI50 [48] was 25.6 µM and the TGI [48] was 63.7 µM. For the same compound, the GI50 [49] was 14.6 µM, the TGI [49] was 32.4 µM and the GI50 [50] was 2.45 µM. The TGI [50] was 13.1 µM, the GI50 [51] was 0.989 µM and the TGI [51] was 4.83 µM. The GI50 [52] was 2.2 µM, the TGI [52] was 6.9 µM and the GI50 [53] was 1.93 µM. It also gave a GI50 [54] of 6.38 µM, a TGI [54] of 12.6 µM and a GI50 [55] of 1.84 µM. The GI50 [56] was 13.4 µM, the TGI [56] was 34.1 µM and the GI50 [57] was 16.6 µM. For the same compound, the TGI [57] was 33.8 µM.
COc1cc(C2C3=C(COC3=O)Nc3cc4c(cc32)CCC4)cc2c1OCO2 (stereo unspecified) gave a GI50 [1] of 0.231 µM, a TGI [1] of 41.7 µM and a GI50 [2] of 1.05 µM. It also gave a TGI [2] of 26.5 µM, a GI50 [3] of 0.0382 µM and a TGI [3] of 0.264 µM. It also gave a GI50 [4] of 0.0299 µM, a TGI [4] of 0.845 µM and a GI50 [5] of 0.0328 µM. It also gave a TGI [5] of 8.73 µM, a GI50 [6] of 12 µM and a TGI [6] of 59.8 µM. For the same compound, the GI50 [7] was 0.0237 µM, the TGI [7] was 0.0604 µM and the GI50 [8] was 0.0577 µM. For the same compound, the TGI [8] was 5.11 µM, the GI50 [9] was 0.0428 µM and the TGI [9] was 1.31 µM. It also gave a GI50 [10] of 0.033 µM, a TGI [10] of 0.724 µM and a GI50 [11] of 0.0531 µM. It also gave a TGI [11] greater than 49.2 µM, a GI50 [58] of 0.025 µM and a TGI [58] of 0.0964 µM. The GI50 [12] was 0.0452 µM, the TGI [12] was 14.6 µM and the GI50 [13] was 0.0471 µM. For the same compound, the TGI [13] was 12 µM, the GI50 [14] was 0.0743 µM and the TGI [14] was 3.48 µM. The GI50 [15] was 0.0335 µM, the TGI [15] was 1.01 µM and the GI50 [16] was 0.0728 µM. For the same compound, the TGI [16] was greater than 62.1 µM, the GI50 [17] was 0.114 µM and the TGI [17] was 21.4 µM. For the same compound, the GI50 [18] was 19.1 µM, the TGI [18] was 74.6 µM and the GI50 [19] was 1.13 µM. For the same compound, the TGI [19] was 63.3 µM, the GI50 [20] was 0.0881 µM and the TGI [20] was 14.6 µM. For the same compound, the GI50 [21] was 0.0558 µM, the TGI [21] was 6.58 µM and the GI50 [22] was 0.311 µM. The TGI [22] was 42.2 µM, the GI50 [23] was 0.0452 µM and the TGI [23] was 4.61 µM. For the same compound, the GI50 [24] was 0.0391 µM, the TGI [24] was 1.6 µM and the GI50 [25] was 0.061 µM. For the same compound, the TGI [25] was 12.7 µM, the GI50 [26] was 10.1 µM and the TGI [26] was 32.4 µM. The GI50 [27] was 0.0453 µM, the TGI [27] was greater than 34.5 µM and the GI50 [28] was 0.0989 µM. It also gave a TGI [28] of 3.47 µM, a GI50 [29] of 0.0308 µM and a TGI [29] of 10.8 µM. It also gave a GI50 [30] of 0.0595 µM, a TGI [30] of 20.2 µM and a GI50 [31] of 0.486 µM. The TGI [31] was 43.3 µM, the GI50 [32] was 0.0717 µM and the TGI [32] was 19.8 µM. It also gave a GI50 [33] of 0.0425 µM, a TGI [33] of 21.3 µM and a GI50 [34] of 0.0345 µM. For the same compound, the TGI [34] was 0.881 µM, the GI50 [35] was 12.7 µM and the TGI [35] was 40.5 µM. It also gave a GI50 [36] of 0.0427 µM, a TGI [36] of 3.04 µM and a GI50 [37] of 0.049 µM. For the same compound, the TGI [37] was 18.2 µM, the GI50 [38] was 0.0305 µM and the TGI [38] was 0.12 µM. For the same compound, the GI50 [39] was 0.0496 µM, the TGI [39] was 15.6 µM and the GI50 [40] was 0.26 µM. The TGI [40] was 4.88 µM, the GI50 [41] was 0.157 µM and the TGI [41] was 38.7 µM. It also gave a GI50 [42] of 0.0496 µM, a TGI [42] of 12.1 µM and a GI50 [44] of 0.0413 µM. The TGI [44] was 13.2 µM, the GI50 [45] was 0.051 µM and the TGI [45] was 17.7 µM. For the same compound, the GI50 [46] was 0.0349 µM, the TGI [46] was 13.3 µM and the GI50 [47] was 0.0617 µM. It also gave a TGI [47] of 17.1 µM, a GI50 [48] of 0.0394 µM and a TGI [48] of 6.18 µM. It also gave a GI50 [49] of 0.0259 µM, a TGI [49] of 18.8 µM and a GI50 [50] of 0.0231 µM. It also gave a TGI [50] of 0.047 µM, a GI50 [51] of 0.0411 µM and a TGI [51] of 0.296 µM. It also gave a GI50 [52] of 0.0407 µM, a TGI [52] of 0.139 µM and a GI50 [53] of 0.02 µM. The TGI [53] was 0.0562 µM, the GI50 [54] was 0.0691 µM and the TGI [54] was 24.4 µM. It also gave a GI50 [55] of 0.0375 µM, a TGI [55] of 12.3 µM and a GI50 [56] of 0.0399 µM. The TGI [56] was 1.99 µM, the GI50 [57] was 0.0724 µM and the TGI [57] was 23.3 µM.
